Source: patent US4526890A, “3,6,7,8-Substituted-s-triazolo[4,3-b]pyridazines as bronchodilators” (The Dow Chemical Company, priority 1981, dated 1985)

Assays:
[1] = system: histamine-induced bronchoconstriction; conditions: in words; cited from earlier work
[2] = 30 minute LD50 (acute toxicity without sound); conditions: mouse, in vivo, ip
Protocol: (§1) The interaction of sound with the convulsive threshold of drugs is a known phenomenon which can be used to evaluate such side effects. […] In a procedure for pharmacological evaluation, the lowering of the convulsive threshold, or the lowering of the LD50, by sound can be studied in mice.
(§2) In the test operations, mice are administered a test compound by intraperitoneal injection at various dosages, and the number of mice showing tonic convulsions and the number of fatalities occurring within 30 minutes is recorded.

[3] = Audiogenic convulsive side effects (sound challenge: tonic convulsions and fatalities); conditions: mouse, ip
Protocol: as §1, §2
(§3) The sound exposure is carried out by placing the mice in a sound insulated cage with a bell which emits 120 decibels of sound, and activating the bell for two minutes. The number of tonic convulsions and fatalities are then recorded to determine the ED50 and LD50 in the presence of the sound challenge.

[4] = system: mice; conditions: laboratory animals; in words; U.S. Pat. No. 4,136,182; cited from earlier work
[5] = system: histamine-induced bronchoconstriction; assay: Bronchodilator activity in the Konzett-Rossler guinea pig preparation (histamine-induced bronchoconstriction); assay type: in vivo; design: key to Histamine Blockade: % blockade = 100 − (post-dose response / mean of 3 prior) × 100; conditions: for Histamine Blockade: table 7, intravenous, 3 mg/kg except as otherwise indicated, aminophylline 10 mg/kg
Protocol: Bronchodilator activity of representative triazolopyridazine compounds of the invention is examined in the Konzett-Rossler quinea pig preparation according to accepted procedures. See Knozett and Rossler; Arch. f. Exp. Path. u. Pharmakol. […] Int. Pharmacodyn. […] In this procedure an anesthetized guinea pig is artificially respired with a fixed volume of air. The volume of air is selected to slightly exceed the capacity of the guinea pig's lungs, and the excess air or "overflow" is measured. Test compounds are evaluated by administering a test compound intravenously 2 minutes prior to administration of an agonist compound (histamine, serotonin or acetylcholine) following 3 previous agonist doses resulting in relatively uniform (±10 percent) bronchoconstriction. […] This is calculated by dividing the "overflow" agonist response measured after administration of the test compound by the average of the 3 preceding agonist responses, multiplying by 100 and subtracting this value from 100 percent.

[6] = system: mice; conditions: laboratory animals; in words; U.S. Pat. No. 4,136,182; cited from earlier work; remark: listed apart in the source
[7] = system: mice; assay: in vivo; conditions: mouse
Protocol: as §1, §2, §3

Row | Structure (SMILES) | effect on bronchoconstriction [1] | LD50 at 0.5 h [2] [mg/kg] | LD50 ([3]; in vivo) [mg/kg] | TD50 ([3]; in vivo) [mg/kg] | LD50 (toxicity) [4] | Histamine Blockade [5] | audiogenic convulsions [6] | audiogenic convulsive threshold / sound-induced toxicity [7] | TD50 [3] [mg/kg] | percent blockade of histamine ([5]; 3 mg/kg intravenously, 2 minutes prior to histamine) [%]
1 | Cc1cc(-c2ccccc2)c2nnc(N3CCOCC3)n2n1 [6-methyl-3-(4-morpholinyl)-8-phenyl-s-triazolo[4,3-b]pyridazine] | potentiate bronchoconstriction |  |  |  |  |  |  |  |  | 
2 | c1ccc(-c2nnc3ccc(N4CCOCC4)nn23)cc1 [6-morpholino-3-phenyl-s-triazolo[4,3-b]pyridazine, reference compound] | potent bronchodilator | > 400 | 30 | 5 | high LD50 (low toxicity) | 22 | produce audiogenic convulsions in laboratory animals at relatively low dosages |  |  | 
3 | Cc1cc2nnc(C)n2nc1N1CCOCC1 [Example 2, 3,7-dimethyl-6-morpholino-s-triazolo[4,3-b]pyridazine] |  | 228 | 148 |  |  | 61 |  | much less reduction in convulsive threshold | 135 | 61
